Laboratory results: US12281123B2, “Benzoxazinone compounds as KLK5/7 dual inhibitors” (MOLECULAR SKIN THERAPEUTICS, INC., priority 2019, dated 2025)
“And” between values parts separate entries of the source, which are not always exact repeats. Equal entries are not always repeated. Where two headings read alike, the source gives them in different places.

How the values were obtained:
Type in all cases: biochemical
[1] = target: T1, KLK1 (Homo sapiens, UniProt P06870); assay: Chromogenic assay, KLK1; conditions: KLK1 10 nM; S-2266 200 μM; highest conc. of 1.001 50 μM
T1 construct: purchased Prospec
Description: (§1) Substrates: S-2288 (D-Ile-Pro-Arg-pNA), CS-PSA (MeO-Suc-Arg-Pro-Tyr-pNA), S-2266 (H-D-Val-Leu-Arg-pNA) and S-2288 (H-D-Ile-Pro-Arg-pNA) were bought from Diapharma (West Chester, OH). MeOSuccAla-Ala-Pro-Val-pNA was purchased from Sigma (St Louis, MI). The substrates were dissolved in water at 10 mM and were frozen in aliquots at −20° C.
(§2) Assays: All assays were performed in 384 well polystyrene plates coated overnight with 0.1% Tween 20 at 4° C. The plates were then washed twice with 100 μL water and dried. For the determination of IC50 values, the inhibitors were diluted in serial dilutions of 1:3 intervals into pure DMSO at 50 fold of the intended final concentrations in the assays. Usually eight inhibitor dilutions and one DMSO control were prepared. The substrates were diluted into water at 2.2-fold the final concentration in the assay mixture. The wells of the plate were filled with 50 μL of the enzyme diluted in 2× assay buffer (100 mM Tris, 200 mM NaCl, 0.2% PEG, 0.01% Tween, 2 mM EDTA, pH 8.0) at twofold the intended concentration. Then 5 μL DMSO, 2.2 μL inhibitor and 45 μL substrate were added to start the reaction. The assays were monitored at 37° C. in a multi well plate reader at a wavelength of 405 nm (Molecular Devices, San Jose, CA) for 1 h. […]
(§3) Data analysis: The progress curves of substrate hydrolysis were analyzed by linear regression of the final 20 min of the reaction. […]

[2] = target: T2, KLK7 (Homo sapiens, UniProt P49862); assay: Recombinant KLK7 chromogenic IC50 assay
T2 construct: purchased R&D Biosystems (Minneapolis, MN) / R&Dsystems; host or cells: mouse myeloma cells
Text: (§4) Human Kallikrein Proteins: Recombinant human KLK5 expressed in HEK293 was obtained from SpeedBio (Gaithersburg, MD). Recombinant proenzyme KLK-7 and recombinant proenzyme KLK-14 both expressed in mouse myeloma cells were from R&D Biosystems (Minneapolis, MN). Plasmin and thrombin were from Haematologic Technologies (Essex Junction, VT). Trypsin and Chymotrypsin were bought from Worthington Biochemical Corporation (Lakewood, NJ) and plasma kallikrein was from Prospec (East Brunswick, NJ). Neutrophil Elastase was obtained from Innovative Research (Peary Court, MI). Bovine recombinant enterokinase expressed in E. coli was bought from Sigma (St. Louis, MI). Matriptase expressed in E. coli was obtained from Enzo Life Sciences (Farmingdale, NY). The control inhibitors Nafamostat mesylate was from Sigma (St. Louis, MI) and (2-(2-fluorophenyl)-5,6,7,8-tetrahydro-4H-benzo[4,5]thieno[2,3-d][1,3]oxazin-4-one was from Interbioscreen (Moskow, Russia).
as §1
Activation of KLK-7 and KLK-14: 150 μL 8 μM solution of the proenzymes of KLK-7 or KLK-14 in 50 mM Tris, 10 mM CaCl2, 150 mM NaCl, 0.05% (w/v) Brij-35, pH 7.5 were mixed with 150 μL 10 μg/mL bovine enterokinase in the same buffer and incubated for 2 h for KLK-7 and 1 h for KLK-14 at 37° C. After the incubation period, activation was stopped by addition of 6 μL 0.5 M EDTA pH 8.0.
(§5) Assays: All assays were performed in 384 well polystyrene plates coated overnight with 0.1% Tween 20 at 4° C. The plates were then washed twice with 100 μL water and dried. For the determination of IC50 values, the inhibitors were diluted in serial dilutions of 1:3 intervals into pure DMSO at 50 fold of the intended final concentrations in the assays. Usually eight inhibitor dilutions and one DMSO control were prepared. The substrates were diluted into water at 2.2-fold the final concentration in the assay mixture. The wells of the plate were filled with 50 μL of the enzyme diluted in 2× assay buffer (100 mM Tris, 200 mM NaCl, 0.2% PEG, 0.01% Tween, 2 mM EDTA, pH 8.0) at twofold the intended concentration. Then 5 μL DMSO, 2.2 μL inhibitor and 45 μL substrate were added to start the reaction. The assays were monitored at 37° C. in a multi well plate reader at a wavelength of 405 nm (Molecular Devices, San Jose, CA) for 1 h. The tool inhibitor, nafamostat, was used as a control for trypsin, thrombin, KLK-5 and KLK-14 at 10 μM maximal concentration and (2-(2-fluorophenyl)-5,6,7,8-tetrahydro-4H-benzo[4,5]thieno[2,3-d][1,3]oxazin-4-one for KLK-7 at 5 μM.
The table summarizes assay conditions for the individual enzymes:
Data analysis: The progress curves of substrate hydrolysis were analyzed by linear regression of the final 20 min of the reaction. Fit of the dose response of the resulting rates to the following equation yielded the IC50:
[formula] with 1) c: the background rate at the highest inhibitor concentration; 2) d: the rate of the control reaction; 3) IC50: the IC50 of the inhibitor; 4) x: the inhibitor concentration; and 5) b: the slope.
Proteases: KLK5 (SpeedBioSystems); KLK7 (R&Dsystems) was activated with enterokinase (2 hours, 37° C.) prior to assay; Trypsin (Sigma Aldrich); Chymotrypsin (Sigma Aldrich); Factor Xa (Haematologic Technologies); Plasmin (Haematologic Technologies); KLK14 (R&Dsystems) was activated with enterokinase (1 hour, 37° C.) prior to assay; Thrombin (Haematologic Technologies); Neutrophil Elastase (Athens Research&Technology); and KLK1 (Prospec).

[3] = target: T3, Neutrophil Elastase (Homo sapiens, UniProt P08246); assay: Chromogenic assay, neutrophil elastase; conditions: Neutrophil Elastase 0.5 nM; Elastase substrate 1 200 μM; highest conc. of 1.001 100 μM
T3 sequence (P08246 30-267): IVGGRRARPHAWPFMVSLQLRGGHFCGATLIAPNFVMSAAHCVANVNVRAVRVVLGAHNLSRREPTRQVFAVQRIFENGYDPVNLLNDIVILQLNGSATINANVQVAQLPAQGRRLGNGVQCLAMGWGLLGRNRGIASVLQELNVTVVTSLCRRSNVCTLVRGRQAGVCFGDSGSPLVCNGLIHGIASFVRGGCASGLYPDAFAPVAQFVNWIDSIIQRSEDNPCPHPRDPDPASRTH
Text: as §4, with “Russia). […]” for “Russia).”
(§6) Assays: All assays were performed in 384 well polystyrene plates coated overnight with 0.1% Tween 20 at 4° C. […] The assays were monitored at 37° C. in a multi well plate reader at a wavelength of 405 nm (Molecular Devices, San Jose, CA) for 1 h. […]
as §3

[4] = target: T4, Plasmin (Homo sapiens, UniProt P00747); assay: Chromogenic assay, plasmin; conditions: Plasmin 1.0 nM; S-2288 500 μM; highest conc. of 1.001 50 μM
T4 construct: purchased Haematologic Technologies (Essex Junction, VT)
Text: as §4, with “Russia). […]” for “Russia).”
as §6, §3

[5] = target: Chymotrypsin (Bos taurus, UniProt P00766); assay: Chromogenic assay, chymotrypsin
Text: as §4, §1
as §2, with “The wells of the plate were filled with 50 μL of the enzyme diluted in 2× assay buffer (100 mM Tris, 200 mM NaCl, 0.2% PEG, 0.01% Tween, 2 mM EDTA, pH 8.0) at twofold the intended concentration. Then 5 μL DMSO, 2.2 μL inhibitor and 45 μL substrate were added to start the reaction.” left out
as §3

[6] = test system: proteases; assay: Chromogenic assay, protease panel (conclusion); conditions: conclusion from Table 3, all proteases tested
Description: as §5, with “μM. […]” for “μM.”

[7] = Chymotrypsin 0.2 nM, CS-PSA 500 μM, highest conc. of 1.001 50 μM

T4 sequence (P00747 581-810 limits assumed, species assumed): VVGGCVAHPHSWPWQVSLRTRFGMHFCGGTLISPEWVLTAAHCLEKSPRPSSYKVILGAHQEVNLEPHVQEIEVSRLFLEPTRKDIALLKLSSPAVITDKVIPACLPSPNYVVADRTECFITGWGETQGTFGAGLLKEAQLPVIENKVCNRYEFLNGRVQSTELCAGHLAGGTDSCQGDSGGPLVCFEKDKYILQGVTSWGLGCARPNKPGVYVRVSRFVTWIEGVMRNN
T4 sequence (P00747 97-580 partner limits assumed, species assumed): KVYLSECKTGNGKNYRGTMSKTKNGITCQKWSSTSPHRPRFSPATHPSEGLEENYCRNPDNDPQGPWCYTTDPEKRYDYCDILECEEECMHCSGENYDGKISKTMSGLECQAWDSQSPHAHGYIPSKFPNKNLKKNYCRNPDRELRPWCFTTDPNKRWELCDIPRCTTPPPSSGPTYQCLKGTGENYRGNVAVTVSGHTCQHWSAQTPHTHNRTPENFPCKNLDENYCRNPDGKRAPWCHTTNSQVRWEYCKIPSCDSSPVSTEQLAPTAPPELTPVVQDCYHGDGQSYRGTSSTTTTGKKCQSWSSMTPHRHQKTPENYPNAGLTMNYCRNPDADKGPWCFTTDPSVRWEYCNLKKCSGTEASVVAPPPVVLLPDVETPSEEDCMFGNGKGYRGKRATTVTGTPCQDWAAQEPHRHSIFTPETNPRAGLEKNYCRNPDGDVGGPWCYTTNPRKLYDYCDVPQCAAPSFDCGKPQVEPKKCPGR
T2 sequence (P49862 30-253): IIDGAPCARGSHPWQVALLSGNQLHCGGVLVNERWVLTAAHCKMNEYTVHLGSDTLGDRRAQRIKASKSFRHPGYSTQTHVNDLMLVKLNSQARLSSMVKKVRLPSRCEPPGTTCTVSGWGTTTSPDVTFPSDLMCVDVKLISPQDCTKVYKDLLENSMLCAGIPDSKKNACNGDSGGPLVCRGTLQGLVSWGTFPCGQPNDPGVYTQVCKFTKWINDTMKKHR
T1 sequence (P06870 25-262): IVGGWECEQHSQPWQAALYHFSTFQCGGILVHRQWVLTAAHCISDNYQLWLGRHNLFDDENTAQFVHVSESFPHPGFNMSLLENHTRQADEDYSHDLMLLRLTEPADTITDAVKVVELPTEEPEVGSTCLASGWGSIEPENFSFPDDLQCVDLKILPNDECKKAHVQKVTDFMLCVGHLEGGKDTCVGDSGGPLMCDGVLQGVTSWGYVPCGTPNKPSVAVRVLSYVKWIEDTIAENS

In the case of CS(=O)(=O)c1cc(CO)ccc1-c1nc2cc3c(cc2c(=O)o1)OCCO3 [Compound 1.001, 2-(4-(Hydroxymethyl)-2-(methylsulfonyl)phenyl)-7,8-dihydro-4H-[1,4]dioxino[2′,3′:4,5]benzo[1,2-d][1,3]oxazin-4-one], the “IC50 (μM), KLK1” value [1] is reported as “No inhibition”, the IC50 ([2]; Table 2, assay protocol of Example 3, read-out: Recombinant KLK7 enzyme (IC50)) is reported as 0.34 µM and the IC50 ([2]; Table 3, KLK7 20 nM, CS-PSA 500 μM, highest conc. of 1.001 20 μM, read-out: IC50 (μM), KLK7) is reported as 0.647 µM and 0.693 µM. For the same compound, the “Inhibition of KLK7, conclusion in words” value ([2]; conclusion from Table 3) was “inhibitor”, the IC50 [3] was > 50 µM and the IC50 [4] was 3.36 µM and 4.2 µM. For the same compound, the IC50 [5, 7] was 0.249 µM and 0.317 µM and the “Inhibition of Chymotrypsin, conclusion in words” value ([5]; conclusion from Table 3) was “inhibitor”.
With CS(=O)(=O)c1cc(CO)ccc1C(=O)Nc1cc2c(cc1C(=O)O)OCCO2 [Compound 408, reference compound] the “IC50 (μM), KLK1” value [1] was “No inhibition”, the “IC50 (μM), KLK7” value ([2]; Table 3, KLK7 20 nM, CS-PSA 500 μM, highest conc. of 1.001 20 μM) was “No inhibition” and the “Inhibition of proteases, conclusion in words” value [6] was “unable to inhibit proteases”. The IC50 [3] was > 500 µM, the “IC50 (μM), Plasmin” value [4] was “No inhibition” and the “IC50 (μM), Chymotrypsin” value [5, 7] was “No inhibition”.
